{"source": "ChEMBL document CHEMBL2146470", "about": "“Novel Carboxamide-Based Allosteric MEK Inhibitors: Discovery and Optimization Efforts toward XL518 (GDC-0973)” (ACS Med Chem Lett, 2012)", "key": {"[1]": {"assay": "Drug uptake in tumor of nude NCr mouse xenografted with human MDA-MB-231T cells at 100 mg/kg, po measured after 24 hrs by LC-MS analysis", "assay_type": "ADME, organism-based, Neoplasm", "set-up": "dose 100 mg/kg, route oral", "conditions": "read-out: Drug uptake; call rule not given here"}, "Rattus norvegicus [2]": {"system": "Rattus norvegicus", "assay": "Toxicity against po dosed rat assessed as adverse effect administered as subchronical dose", "assay_type": "organism-based", "conditions": "in vivo"}, "[3]": {"assay": "Drug uptake in tumor of nude NCr mouse xenografted with human MDA-MB-231T cells at 5 mg/kg, po measured after 24 hrs by LC-MS analysis", "assay_type": "ADME, organism-based", "set-up": "dose 5 mg/kg, route oral", "conditions": "read-out: Drug uptake"}, "[4]": {"assay": "Drug uptake in tumor of nude NCr mouse xenografted with human MDA-MB-231T cells at 10 mg/kg, po measured after 24 hrs by LC-MS analysis", "assay_type": "ADME, organism-based, Neoplasm", "set-up": "dose 10 mg/kg, route oral", "conditions": "read-out: Drug uptake"}, "Brain": {"system": "Brain", "assay": "Drug metabolism in brain of nude NCr mouse xenografted with human MDA-MB-231T cells assessed as 3,4-difluoro-2-(2-fluoro-4-iodophenylamino)benzoic acid level at 100 mg/kg, po measured after 24 hrs by LC-MS analysis", "assay_type": "ADME, organism-based", "set-up": "dose 100 mg/kg, route oral", "conditions": "in vivo"}, "[5]": {"target": "Dual specificity mitogen-activated protein kinase kinase; MEK1/2 (Homo sapiens, UniProt P36507+Q02750)", "description": "Inhibition of MEK-mediated ERK T202/Y204 phosphorylation in human MDA-MB-231T cells after 1 hr by immunoblotting"}, "[6]": {"assay": "Plasma concentration in athymic nude NCr mouse xenografted with human MDA-MB-231T cells at 3 mg/kg administered qd for 14 days", "assay_type": "ADME, organism-based", "set-up": "dose 3 mg/kg"}, "Salmonella typhimurium": {"system": "Salmonella typhimurium", "assay": "Mutagenic activity in Salmonella typhimurium by Ames test", "assay_type": "toxicity, organism-based", "conditions": "salmonella enterica subsp. enterica serovar typhimurium"}, "[7]": {"assay": "Antitumor activity against human MDA-MB-231T cells xenografted in athymic nude NCr mouse assessed as tumor growth inhibition at 3 mg/kg administered qd for 14 days relative to control", "assay_type": "functional", "conditions": "336 h, read-out: GI"}, "[8]": {"assay": "Drug metabolism in rat liver microsomes at 15 uM after 30 mins", "assay_type": "ADME, Microsome", "conditions": "read-out: Drug metabolism"}, "[9]": {"assay": "Plasma concentration in nude NCr mouse xenografted with human MDA-MB-231T cells at 20 mg/kg, po measured after 24 hrs by LC-MS analysis", "assay_type": "ADME, organism-based", "set-up": "dose 20 mg/kg, route oral"}, "[10]": {"assay": "Clearance in Sprague-Dawley rat at 5 mg/kg, po", "assay_type": "ADME, organism-based", "set-up": "dose 5 mg/kg, route oral", "conditions": "in vivo"}, "[11]": {"assay": "Antitumor activity against human MDA-MB-231T cells xenografted in athymic nude NCr mouse assessed as tumor growth inhibition at 1 mg/kg administered qd for 14 days relative to control", "assay_type": "functional", "conditions": "336 h, read-out: GI"}, "Rattus norvegicus [12]": {"system": "Rattus norvegicus", "assay": "Dose normalised AUC (0 to t) in Sprague-Dawley rat at 5 mg/kg, po", "assay_type": "ADME, organism-based", "set-up": "dose 5 mg/kg, route oral", "conditions": "in vivo"}, "[13]": {"assay": "Plasma concentration in nude NCr mouse xenografted with human MDA-MB-231T cells at 100 mg/kg, po measured after 24 hrs by LC-MS analysis", "assay_type": "ADME, organism-based", "set-up": "dose 100 mg/kg, route oral"}, "[14]": {"assay": "Plasma concentration in nude NCr mouse xenografted with human MDA-MB-231T cells at 10 mg/kg, po measured after 24 hrs by LC-MS analysis", "assay_type": "ADME, organism-based", "set-up": "dose 10 mg/kg, route oral"}, "[15]": {"assay": "Apparent permeability across MDCK cells", "assay_type": "ADME, cell-based, Canis lupus familiaris", "conditions": "dog"}, "[16]": {"assay": "Drug uptake in brain of nude NCr mouse xenografted with human MDA-MB-231T cells at 5 mg/kg, po measured after 24 hrs by LC-MS analysis", "assay_type": "ADME, organism-based", "set-up": "dose 5 mg/kg, route oral", "conditions": "read-out: Drug uptake"}, "Mus musculus [17]": {"system": "Mus musculus", "assay": "Inhibition of MEK-mediated ERK T202/Y204 phosphorylation in human MDA-MB-231T cells xenografted in nude NCr mouse tumor at 20 mg/kg, po after 24 hrs by immunoblotting", "assay_type": "functional"}, "Mus musculus [18]": {"system": "Mus musculus", "assay": "Inhibition of MEK-mediated ERK T202/Y204 phosphorylation in nude NCr mouse brain xenografted with human MDA-MB-231T cells at 10 mg/kg, po after 24 hrs by immunoblotting", "assay_type": "functional"}, "[19]": {"assay": "Drug metabolism in human liver microsomes at 15 uM after 30 mins", "assay_type": "ADME, Microsome", "conditions": "read-out: Drug metabolism"}, "[20]": {"assay": "Protein binding in serum", "assay_type": "ADME, cell-free"}, "[21]": {"assay": "Plasma concentration in nude NCr mouse xenografted with human MDA-MB-231T cells at 5 mg/kg, po measured after 24 hrs by LC-MS analysis", "assay_type": "ADME, organism-based", "set-up": "dose 5 mg/kg, route oral"}, "[22]": {"assay": "Half life in Sprague-Dawley rat at 5 mg/kg, po", "assay_type": "ADME, organism-based", "set-up": "dose 5 mg/kg, route oral", "conditions": "in vivo"}, "[23]": {"assay": "Drug uptake in brain of nude NCr mouse xenografted with human MDA-MB-231T cells at 100 mg/kg, po measured after 24 hrs by LC-MS analysis", "assay_type": "ADME, organism-based", "set-up": "dose 100 mg/kg, route oral", "conditions": "read-out: Drug uptake"}, "[24]": {"assay": "Drug uptake in brain of nude NCr mouse xenografted with human MDA-MB-231T cells at 20 mg/kg, po measured after 24 hrs by LC-MS analysis", "assay_type": "ADME, organism-based", "set-up": "dose 20 mg/kg, route oral", "conditions": "read-out: Drug uptake"}, "[25]": {"assay": "Drug uptake in tumor of nude NCr mouse xenografted with human MDA-MB-231T cells at 20 mg/kg, po measured after 24 hrs by LC-MS analysis", "assay_type": "ADME, organism-based, Neoplasm", "set-up": "dose 20 mg/kg, route oral", "conditions": "read-out: Drug uptake"}, "Mus musculus [26]": {"system": "Mus musculus", "assay": "Inhibition of MEK-mediated ERK T202/Y204 phosphorylation in human MDA-MB-231T cells xenografted in nude NCr mouse tumor at 100 mg/kg, po after 24 hrs by immunoblotting", "assay_type": "functional"}, "[27]": {"target": "Dual specificity mitogen-activated protein kinase kinase 1 (Homo sapiens, UniProt Q02750)", "sequence (Q02750 whole entry)": "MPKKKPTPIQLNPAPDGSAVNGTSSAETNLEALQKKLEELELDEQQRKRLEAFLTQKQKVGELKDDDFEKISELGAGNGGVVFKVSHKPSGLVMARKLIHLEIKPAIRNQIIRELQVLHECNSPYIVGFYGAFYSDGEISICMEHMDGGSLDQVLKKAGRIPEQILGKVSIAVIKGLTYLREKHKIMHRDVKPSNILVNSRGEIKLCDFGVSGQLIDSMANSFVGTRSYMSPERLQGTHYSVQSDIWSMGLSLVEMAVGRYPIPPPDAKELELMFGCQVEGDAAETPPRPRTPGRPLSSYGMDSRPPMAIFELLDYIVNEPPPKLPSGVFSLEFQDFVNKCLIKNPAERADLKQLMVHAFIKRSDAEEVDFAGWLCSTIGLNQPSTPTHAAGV", "description": "Inhibition of MEK1-mediated ERK2 T202/Y204 phosphorylation using biotinylated MBP as substrate preincubated for 30 mins measured after 100 mins by cRAF-MEK-ERK enzyme coupled assay"}, "Mus musculus [28]": {"system": "Mus musculus", "assay": "Inhibition of MEK-mediated ERK T202/Y204 phosphorylation in nude NCr mouse brain xenografted with human MDA-MB-231T cells at 100 mg/kg, po after 24 hrs by immunoblotting", "assay_type": "functional"}, "Mus musculus [29]": {"system": "Mus musculus", "assay": "Inhibition of MEK-mediated ERK T202/Y204 phosphorylation in human MDA-MB-231T cells xenografted in nude NCr mouse tumor at 5 mg/kg, po after 24 hrs by immunoblotting", "assay_type": "functional"}, "Mus musculus [30]": {"system": "Mus musculus", "assay": "Inhibition of MEK-mediated ERK T202/Y204 phosphorylation in nude NCr mouse brain xenografted with human MDA-MB-231T cells at 5 mg/kg, po after 24 hrs by immunoblotting", "assay_type": "functional"}, "[31]": {"assay": "Drug uptake in brain of nude NCr mouse xenografted with human MDA-MB-231T cells at 10 mg/kg, po measured after 24 hrs by LC-MS analysis", "assay_type": "ADME, organism-based", "set-up": "dose 10 mg/kg, route oral", "conditions": "read-out: Drug uptake"}, "Mus musculus [32]": {"system": "Mus musculus", "assay": "Inhibition of MEK-mediated ERK T202/Y204 phosphorylation in nude NCr mouse brain xenografted with human MDA-MB-231T cells at 20 mg/kg, po after 24 hrs by immunoblotting", "assay_type": "functional"}, "Mus musculus [33]": {"system": "Mus musculus", "assay": "Inhibition of MEK-mediated ERK T202/Y204 phosphorylation in human MDA-MB-231T cells xenografted in nude NCr mouse tumor at 10 mg/kg, po after 24 hrs by immunoblotting", "assay_type": "functional"}, "Mus musculus [34]": {"system": "Mus musculus", "assay": "Inhibition of MEK-mediated ERK T202/Y204 phosphorylation in human MDA-MB-231T cells xenografted in po dosed nude NCr mouse tumor after 24 hrs by immunoblotting", "assay_type": "functional"}, "[35]": {"assay": "Oral bioavailability in Sprague-Dawley rat at 5 mg/kg", "assay_type": "ADME, organism-based", "conditions": "in vivo"}}, "data": [{"smiles": "O=C(c1ccc(F)c(F)c1Nc1ccc(I)cc1F)N1CC(O)([C@@H]2CCCCN2)C1", "note": "[COBIMETINIB]", "values": [{"measurement": "concentration at 24 h", "setting": "[1]", "result": 22800, "unit": "nM"}, {"measurement": "Activity", "setting": "Rattus norvegicus [2]", "result": "Non-toxic"}, {"measurement": "concentration at 24 h", "setting": "[3]", "result": 530, "unit": "nM"}, {"measurement": "concentration at 24 h", "setting": "[4]", "result": 1990, "unit": "nM"}, {"measurement": "Drug uptake", "setting": "Brain", "result": "Not Active"}, {"measurement": "IC50", "setting": "[5]", "result": 0.2, "unit": "nM"}, {"measurement": "concentration at 336 h", "setting": "[6]", "result": 130, "unit": "nM"}, {"measurement": "Activity", "setting": "Salmonella typhimurium", "result": "Non-toxic"}, {"measurement": "inhibition in vivo at 3 mg/kg", "setting": "[7]", "result": 93, "unit": "%"}, {"measurement": "metabolised at 0.5 h, 15 µM", "setting": "[8]", "result": 22.4, "unit": "%"}, {"measurement": "concentration at 24 h", "setting": "[9]", "result": 100, "unit": "nM"}, {"measurement": "CL/F", "setting": "[10]", "result": 59.4, "unit": "mL/min/kg"}, {"measurement": "inhibition in vivo at 1 mg/kg", "setting": "[11]", "result": 60, "unit": "%"}, {"measurement": "AUCt/dose", "setting": "Rattus norvegicus [12]", "result": 0.35, "unit": "µM·h/mg/kg"}, {"measurement": "concentration at 24 h", "setting": "[13]", "result": 120, "unit": "nM"}, {"measurement": "concentration at 24 h", "setting": "[14]", "result": 100, "unit": "nM"}, {"measurement": "Papp", "setting": "[15]", "result": 10.5, "unit": "×10⁻⁶ cm/s"}, {"measurement": "concentration at 24 h", "setting": "[16]", "result": "< 4", "unit": "nM"}, {"measurement": "inhibition in vivo at 20 mg/kg", "setting": "Mus musculus [17]", "result": 75, "unit": "%"}, {"measurement": "inhibition in vivo at 10 mg/kg", "setting": "Mus musculus [18]", "result": 7, "unit": "%"}, {"measurement": "metabolised at 0.5 h, 15 µM", "setting": "[19]", "result": 13.8, "unit": "%"}, {"measurement": "Activity", "setting": "[20]", "result": 94, "unit": "%"}, {"measurement": "concentration at 24 h", "setting": "[21]", "result": "< 4", "unit": "nM"}, {"measurement": "half-life", "setting": "[22]", "result": 6.1, "unit": "h"}, {"measurement": "concentration at 24 h", "setting": "[23]", "result": 220, "unit": "nM"}, {"measurement": "concentration at 24 h", "setting": "[24]", "result": "< 4", "unit": "nM"}, {"measurement": "concentration at 24 h", "setting": "[25]", "result": 3590, "unit": "nM"}, {"measurement": "inhibition in vivo at 100 mg/kg", "setting": "Mus musculus [26]", "result": 87, "unit": "%"}, {"measurement": "IC50", "setting": "[27]", "result": 0.9, "unit": "nM"}, {"measurement": "inhibition in vivo at 100 mg/kg", "setting": "Mus musculus [28]", "result": 0, "unit": "%"}, {"measurement": "inhibition in vivo at 5 mg/kg", "setting": "Mus musculus [29]", "result": 16, "unit": "%"}, {"measurement": "inhibition in vivo at 5 mg/kg", "setting": "Mus musculus [30]", "result": 8, "unit": "%"}, {"measurement": "concentration at 24 h", "setting": "[31]", "result": "< 4", "unit": "nM"}, {"measurement": "inhibition in vivo at 20 mg/kg", "setting": "Mus musculus [32]", "result": 2, "unit": "%"}, {"measurement": "inhibition in vivo at 10 mg/kg", "setting": "Mus musculus [33]", "result": 45, "unit": "%"}, {"measurement": "ED90", "setting": "Mus musculus [34]", "result": 39.7, "unit": "mg/kg"}, {"measurement": "bioavailability", "setting": "[35]", "result": 77, "unit": "%"}]}]}
